This passage reports activity change, negative = inhibition and AC50 results from PubChem BioAssay AID493064 (Broad Institute, 2011).

A short description of assay [1]: PubChem AID 493064. Conditions: C. albicans CaCi-8 + fluconazole, Alamar Blue growth, 48 h; at 26 µM (top of the series). Background: Resazurin is reduced to fluorescent resorufin, in cell work by metabolically active cells.
For assay [2], the system named is C. albicans CaCi-8 + fluconazole, Alamar Blue growth, 48 h. Kind of assay: PubChem AID 493064.

“And” between values parts separate entries of the source, which are not always exact repeats. Identical values can stand only once. Inconclusive results are not listed. The source made the active and inactive calls. How the calls were made is not given here. Some results are limits rather than exact numbers.

As for `O=C(Cn1c2ccc(F)cc2c2nc3n(c(=O)c21)CCS3)N1CCCCC1`, in assay [1], the activity change, negative = inhibition was 8.36% (inactive). Usually AC50 stands for the midpoint of the concentration-response curve, whichever way the signal moves. As to `O=C(O)c1nn(Cc2ccc(Cl)cc2)c2ccccc12`, the AC50 in assay [2] was > 26 µM (inactive).

In the case of `COC(=O)Cn1c(-c2ccccc2)nc2ccccc21`, the activity change, negative = inhibition in assay [1] was -13.8% (inactive).

Take `COC(=O)Cn1nc(C)c2ccccc21`: in assay [1], the activity change, negative = inhibition is -17.2% (inactive).

Take `O=C(Cn1nc(-c2ccccc2)c2ccccc21)NCc1ccc(Cl)cc1`: the activity change, negative = inhibition in assay [1] is -6.6% (inactive). Regarding `O=C(O)Cn1nc(-c2ccccc2)c2ccccc21`, the activity change, negative = inhibition in assay [1] is -17.8% (inactive). Take `O=C(c1ccc(Cl)cc1)N1CCN(c2nc3ccccc3s2)CC1`: the half-maximal activity concentration (AC50) in assay [2] was 4.94 µM. For the molecule `CCOC(=O)c1c2ccccc2nn1Cc1ccc(Cl)cc1`, the activity change, negative = inhibition in assay [1] was 5.94% (inactive). As to `CC1CCN(C(=O)Cn2c3ccccc3c3nc4n(c(=O)c32)CCS4)CC1`, the AC50 in assay [2] is 8.88 µM. Take `O=C(c1cccc(Cl)c1)N1CCN(c2ccccn2)CC1`: the activity change, negative = inhibition in assay [1] is -1.33% (inactive). Regarding `CCN(CC)C(=O)Cn1c2ccccc2c2nc3n(c(=O)c21)CCS3`, the activity change, negative = inhibition in assay [1] was 8.8% (inactive) and 7.89% (inactive). As to `COc1ccc(C(=O)N2CCN(c3ccccn3)CC2)cc1`, the half-maximal activity concentration (AC50) in assay [2] was 7.53 µM. Regarding `O=C(c1ccc(Cl)cc1)N1CCN(c2cccc(C(F)(F)F)n2)CC1`, in assay [1], the activity change, negative = inhibition was -8.21% (inactive). Regarding `Cc1ccnc(N2CCN(C(=O)c3ccc(Cl)cc3)CC2)c1`, the activity change, negative = inhibition in assay [1] is -6.71% (inactive). As for `N#Cc1ccc(N2CCN(C(=O)c3ccc(Cl)cc3)CC2)nc1`, in assay [2], the AC50 is > 26 µM (inactive). Turning to `CC(C)C(=O)N1CCN(c2ccccn2)CC1`, the activity change, negative = inhibition in assay [1] is -2.77% (inactive).

With `O=C(Cn1nc(C(=O)N2CCCCC2)c2ccccc21)N1CCOCC1`, the activity change, negative = inhibition in assay [1] was -1.16% (inactive). On to `O=C(Cn1nc(-c2ccccc2)c2cc(Cl)ccc21)N1CCOCC1`, for which, in assay [2], the AC50 was > 26 µM (inactive). Take `CCCCC(=O)N1CCN(c2ccccn2)CC1`: the activity change, negative = inhibition in assay [1] was -12.5% (inactive). For the molecule `COC(=O)Cn1nc(-c2ccccc2)c2ccccc21`, the AC50 in assay [2] is 3.13 µM.
